According to patent US8093265B2, “Bicycloheteroaryl compounds as P2X7 modulators and uses thereof” (Renovis, Inc., priority 2007, dated 2012):

Tests used:
[1] = target: T1, P2X7 receptor (Homo sapiens, UniProt Q99572); assay: IL-1β release assay in differentiated THP-1 cells (Example 9); assay type: cell-based; conditions: THP-1 cells differentiated with LPS and IFN-γ; 30 min pretreatment; BzATP 250 uM; IL-1β by ELISA
T1 construct: host or cells: THP-1 cells differentiated with LPS and IFN-γ
T1 sequence (Q99572 1-595): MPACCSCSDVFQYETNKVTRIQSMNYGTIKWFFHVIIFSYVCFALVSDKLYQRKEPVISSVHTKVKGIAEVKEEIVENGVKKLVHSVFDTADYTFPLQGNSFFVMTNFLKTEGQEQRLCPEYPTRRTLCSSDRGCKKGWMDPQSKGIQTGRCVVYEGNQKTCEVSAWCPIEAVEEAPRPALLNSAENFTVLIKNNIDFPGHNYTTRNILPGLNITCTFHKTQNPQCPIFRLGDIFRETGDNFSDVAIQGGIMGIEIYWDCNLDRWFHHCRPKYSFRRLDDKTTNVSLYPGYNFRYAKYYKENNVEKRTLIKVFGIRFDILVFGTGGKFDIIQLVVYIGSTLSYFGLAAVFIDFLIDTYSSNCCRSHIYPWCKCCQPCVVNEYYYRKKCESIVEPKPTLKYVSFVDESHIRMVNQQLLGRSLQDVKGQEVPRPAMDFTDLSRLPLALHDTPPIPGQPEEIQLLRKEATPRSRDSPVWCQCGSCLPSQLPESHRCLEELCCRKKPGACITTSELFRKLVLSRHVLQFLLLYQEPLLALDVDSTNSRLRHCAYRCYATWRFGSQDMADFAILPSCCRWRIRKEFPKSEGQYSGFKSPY
Experimental: THP-1 cells (ATCC Cat #285-IF-100) are plated in 96 well plates at a concentration of 200,000 cells per well and allowed to differentiate in RPMI-1640 media (ATCC Cat #30-2001) containing 10% FBS, 100 IU/mL penicillin, 100 ug/mL streptomycin, 100 ng/mL LPS and 100 ng/mL IFN-γ for 16 hours. Following differentiation, the cells are treated for an additional 2 hours in RPMI-1640 media containing 100 IU/mL penicillin, 100 ug/mL streptomycin and fresh LPS at 100 ng/mL. The cells are then pretreated for 30 minutes with the compound of interest at the appropriate concentration in RPMI media containing 100 IU/mL penicillin, 100 ug/mL streptomycin. Following the pretreatment 2′,3′-O-(4-benzoylbenzoyl)-adenosine 5′-triphosphate (Sigma Aldrich Cat # B6396) is added to a final concentration of 250 uM, and the cells are incubated for an additional 45 minutes. 30 uL of cell supernatant is then collected and IL-1β levels are determined via ELISA (R&D systems Cat. # HSLB50) according to manufacturer's recommendations using a Tecan Safire plate reader. Background adjusted IL-1β levels of drug treated and non-treated cells are used to calculate the percent inhibition.
The following compounds have been or can be prepared according to the synthetic methods described herein for example, methods A-AA1. The compounds set forth in Table 1 were tested for activity in a cellular model as described herein. Specifically, cells were pretreated with differing amounts of the compound under test and released IL-1β determined as in Example 9, above. Measurements were made and IC50 values, presented in Table 1, below, were determined by fitting the data to a four parameter logistic equation using GraphPad Prism software (GraphPad Software, Inc). The equation may be expressed by the following formula: Y=Bottom+(Top−Bottom)/(1+10^((Log EC50−X)*HillSlope)) where X is the logarithm of concentration, Y is the response and Y starts at Bottom and goes to Top with a sigmoid shape.

[2] = Half-life in human liver microsomes (HLM); assay type: in vitro ADME; conditions: human liver microsomes 0.78 mg/mL, 1 μM compound, NADPH, 37° C.; for half-life at 1 μM: pH 7.4
Experimental: Half-Life in Human Liver Microsomes (HLM)
Test compounds (1 μM) are incubated with 3.3 mM MgCl2 and 0.78 mg/mL HLM (HL101) in 100 mM potassium phosphate buffer (pH 7.4) at 37° C. on the 96-deep well plate. The reaction mixture is split into two groups, a non-P450 and a P450 group. NADPH is only added to the reaction mixture of the P450 group. An aliquot of samples of P450 group is collected at 0, 10, 30, and 60 min time point, where 0 min time point indicated the time when NADPH is added into the reaction mixture of P450 group. […] Collected aliquots are extracted with acetonitrile solution containing an internal standard. […] The compound concentration in supernatant is measured by LC/MS/MS system.
The half-life value is obtained by plotting the natural logarithm of the peak area ratio of compounds/internal standard versus time. The slope of the line of best fit through the points yields the rate of metabolism (k). This is converted to a half-life value using following equations: Half-life=ln 2/k

Row | Compound | IC50 [1] | Half Life [2] | half-life at 1 μM [2]
1 | C[C@H](CO)n1ccc2c(NC(=O)Cc3ccc(Cl)c(F)c3)c(Cl)ccc2c1=O [Compound 15, 2-(4-Chloro-3-fluoro-phenyl)-N-[6-chloro-2-((R)-2-hydroxy-1-methyl-ethyl)-1-oxo-1,2-dihydro-isoquinolin-5-yl]-acetamide] | 6 nM | 1.3 h | 
2 | C[C@H](CO)n1ccc2c(C(=O)NCc3cccc(C(F)(F)F)c3)c(Cl)ccc2c1=O [Compound 44, 6-Chloro-2-((R)-2-hydroxy-1-methyl-ethyl)-1-oxo-1,2-dihydro-isoquinoline-5-carboxylic acid 3-trifluoromethyl-benzylamide] | 10 nM |  | 1.1 h
3 | C[C@H](CO)n1ccc2c(C(=O)NCc3ccc(Cl)c(F)c3)c(Cl)ccc2c1=O [Compound 45, 6-Chloro-2-((R)-2-hydroxy-1-methyl-ethyl)-1-oxo-1,2-dihydro-isoquinoline-5-carboxylic acid 4-chloro-3-fluoro-benzylamide] | 13 nM |  | 1.6 h
4 | C[C@H](CO)n1ccc2c(C(=O)NCC3(O)CC4CCC3C4)c(Cl)ccc2c1=O (stereo partly drawn) [Compound 53, 6-Chloro-2-((R)-2-hydroxy-1-methyl-ethyl)-1-oxo-1,2-dihydro-isoquinoline-5-carboxylic acid (2-hydroxy-bicyclo[2.2.1]hept-2-ylmethyl)-amide] | 532 nM |  | 
5 | Cc1ccc2c(=O)n(C(CO)CO)ccc2c1NC(=O)Cc1ccc(C(F)(F)F)c(F)c1 [Compound 62, 2-(3-Fluoro-4-trifluoromethyl-phenyl)-N-[2-(2-hydroxy-1-hydroxymethyl-ethyl)-6-methyl-1-oxo-1,2-dihydro-isoquinolin-5-yl]-acetamide] | 30 nM |  | 
6 | C[C@H](CO)n1ccc2c(C(=O)NCC3(O)CCC(F)CC3)c(Cl)ccc2c1=O (some centres unmarked) [Compound 69] | 6 nM |  | 

These reach a lower IC50 [1]. Values come first.

Row | IC50 [1] | Half Life [2] | half-life at 1 μM [2] | Compound
7 | 2 nM | 3.3 h |  | C[C@H](C(N)=O)n1ccc2c(NC(=O)Cc3ccc(C(F)(F)F)cc3)c(Cl)ccc2c1=O [Compound 3, (R)-2-{6-Chloro-1-oxo-5-[2-(4-trifluoromethyl-phenyl)-acetylamino]-1H-isoquinolin-2-yl}-propionamide]
8 | 1 nM |  |  | C[C@H](CO)n1ccc2c(C(=O)NCC3(O)CCCC(C)(C)C3)c(Cl)ccc2c1=O (stereo partly drawn) [Compound 55, 6-Chloro-2-((R)-2-hydroxy-1-methyl-ethyl)-1-oxo-1,2-dihydro-isoquinoline-5-carboxylic acid(1-hydroxy-3,3-dimethyl-cyclohexylmethyl)-amide]
9 | 5 nM |  |  | C[C@H](CO)n1ccc2c(C(=O)NCC3(O)CCCCC3)c(Cl)ccc2c1=O [Compound 57, 6-Chloro-2-((R)-2-hydroxy-1-methyl-ethyl)-1-oxo-1,2-dihydro-isoquinoline-5-carboxylic acid (1-hydroxy-cyclohexylmethyl)-amide]
10 | 0.01 nM |  |  | Cc1ccc2c(=O)n([C@H](C)CN)ccc2c1NC(=O)Cc1ccc(C(F)(F)F)c(F)c1 [Compound 58, N-[2-((R)-2-Amino-1-methyl-ethyl)-6-methyl-1-oxo-1,2-dihydro-isoquinolin-5-yl]-2-(3-fluoro-4-trifluoromethyl-phenyl)-acetamide]
11 | 2 nM |  |  | CNC[C@@H](C)n1ccc2c(NC(=O)Cc3ccc(C(F)(F)F)c(F)c3)c(C)ccc2c1=O [Compound 59, 2-(3-Fluoro-4-trifluoromethyl-phenyl)-N-[6-methyl-2-((R)-1-methyl-2-methylamino-ethyl)-1-oxo-1,2-dihydro-isoquinolin-5-yl]-acetamide]
12 | 1 nM |  |  | Cc1ccc2c(=O)n([C@H](C)CN3CCNCC3)ccc2c1NC(=O)Cc1ccc(C(F)(F)F)c(F)c1 [Compound 60, 2-(3-Fluoro-4-trifluoromethyl-phenyl)-N-[6-methyl-2-((R)-1-methyl-2-piperazin-1-yl-ethyl)-1-oxo-1,2-dihydro-isoquinolin-5-yl]-acetamide]
13 | 5 nM |  |  | Cc1ccc2c(=O)n([C@H](C)CN3CC[C@H](N)C3)ccc2c1NC(=O)Cc1ccc(C(F)(F)F)c(F)c1 [Compound 66]
